Results as given in PMC11077991, “The small molecule CBR-5884 inhibits the Candida albicans phosphatidylserine synthase” (mBio, 2024).

Experiments:
[1] = test system: phospholipid levels in C. albicans; test: thin-layer chromatography of phospholipids; format: cell-based, Candida albicans; conditions: 170 µM, 2 h
Experimental: Wild-type SC5314 and cho1ΔΔ strains grown overnight in YPD were inoculated into fresh YPD at OD600 of 0.1 and were shaken for another 3 h. Then, 170 µM CBR-5884 or equivalent DMSO solvent was added to both wild-type and cho1ΔΔ cultures, and cells were shaken for another 2 h. Then, cells were washed with 1× PBS three times and normalized to a total OD600 of 1. The phospholipids were extracted with the hot ethanol method as described in reference ([14]). A Whatman 250 µm silica gel aluminum backed plate was treated, and separation of phospholipids was carried out as described in reference ([100]). Phospholipid standards PI, PE, PS, and PC were purchased from Avanti. The quantification of the phospholipids was done in ImageJ software.

[2] = test system: purified Cho1; test: CBR-5884 washout assay (radioactive PS synthase assay); format: biochemical, Candida albicans; conditions: 100 µM preincubated 2 h, buffer exchange
Experimental: For CBR-5884 washout assays, purified Cho1 was incubated with CBR-5884 at a final concentration of 100 µM, or equivalent DMSO, in 100 µL volume on ice for 2 h. The CBR-5884 was then washed out by exchanging with 4 mL 50 mM Tris-HCl at pH 8.0 and 0.1% digitonin three times in the Amicon Ultra Centrifugal Filter (10 kDa MWCO). The sample was concentrated to the volume of approximately 500 µL, and protein concentration was determined using the Pierce detergent-compatible Bradford assay kit. The reaction was set up with 50 mM Tris-HCl (pH 8.0), 1 mM MnCl2, 0.1% Triton X-100, 0.1% digitonin, 0.1 mM (4.7 mol %), 16:0 CDP-DAG (Avanti, cat# 870510), and 10 mM L-serine [spiked with 5% (by volume) L-[3H]-serine (15 Ci/mmol)] at a total volume of 100 µL, in the presence of 100 µM CBR-5884 or equivalent DMSO solvent. The reaction was stopped at 20, 40, and 60 min, and specific activity was calculated based on the slope of linear PS production, representing the initial velocity.

[3] = test system: C57BL/6 j mice; set-up: method as in PMID 25848045; conditions: high dose of 20 mg/kg; cited from earlier work

Row | Structure (SMILES) | PI levels [1] | relative PS level in wild-type strain vs DMSO [1] | relative PE levels ([1]; wild-type and cho1ΔΔ) | inhibition after preincubation and washout [2] | tolerability [3]
1 | CCOC(=O)c1sc(NC(=O)c2ccco2)c(SC#N)c1C [CBR-5884] | not strongly affected | significantly dropped | significantly decreased | absence of inhibition | –
2 | O=C(C1CC1)N1CCN(Cn2sc3ccccc3c2=O)CC1 [LOC14] | – | – | – | – | well tolerated
